According to patent publication US11261177B2, “Benzoxazinone derivatives useful as herbicides” (REDAG CROP PROTECTION LTD, priority 2017, dated 2022):

What was measured:
Assay type in all cases: in vivo
Lolium perenne [1] = assay: Pre-emergence herbicidal assay, 96 cell trays, glasshouse; details: 168 h, Lollium, assessed 7 days after treatment, read-out: % control of plant growth; for pest or weed control at 200 g/ha: 0.2 kg/ha; for pest or weed control at 1000 g/ha: 1 kg/ha; for pest or weed control at 5000 g/ha: 5 kg/ha
Method: (§1) The compounds were screened at three concentrations (0.2, 1 and 5 kg/ha) against 2 weed species (Stellaria media—Chickweed and Lolium perenne). The seeds were sown in the cells of 96 cell trays (4-6 seeds per cell). For the pre-emergence assay, 75 μL of a suspension of the test compound, at the above doses, was added on top of the soil 1 day after sowing. For the post-emergence assay, the seedlings were sprayed with 200 μL of a suspension of the test compound two weeks after sowing. The formulation used is 25% acetone and 75% water/0.01% Tween 20. Each treatment was replicated three times. The plants were kept in a glasshouse (uncontrolled conditions) and assessed 7 days after treatment. A small number of compounds were tested in a first trial. A larger number of compounds were tested in a second trial. The assessment was based on the % control of plant growth in each cell.

[2] = test system: Stellaria media—Chickweed; assay: as above; details: 168 h, assessed 7 days after treatment, read-out: % control of plant growth; for pest or weed control at 200 g/ha: 0.2 kg/ha; for pest or weed control at 1000 g/ha: 1 kg/ha; for pest or weed control at 5000 g/ha: 5 kg/ha
Method: as §1

Lolium perenne [3] = assay: Post-emergence herbicidal assay, 96 cell trays, glasshouse; details: 168 h, Lollium, assessed 7 days after treatment, read-out: % control of plant growth; for pest or weed control at 200 g/ha: 0.2 kg/ha; for pest or weed control at 1000 g/ha: 1 kg/ha; for pest or weed control at 5000 g/ha: 5 kg/ha
Method: as §1

[4] = test system: Stellaria media—Chickweed; assay: as above; details: 168 h, assessed 7 days after treatment, read-out: % control of plant growth; for pest or weed control at 200 g/ha: 0.2 kg/ha; for pest or weed control at 1000 g/ha: 1 kg/ha; for pest or weed control at 5000 g/ha: 5 kg/ha
Method: as §1

Row | Compound | pest or weed control at 200 g/ha (Lolium perenne [1]; second trial (Table 2)) [%] | pest or weed control at 1000 g/ha (Lolium perenne [1]; second trial (Table 2)) [%] | pest or weed control at 5000 g/ha (Lolium perenne [1]; second trial (Table 2)) [%] | pest or weed control at 200 g/ha ([2]; second trial (Table 2)) [%] | pest or weed control at 1000 g/ha ([2]; second trial (Table 2)) [%] | pest or weed control at 5000 g/ha ([2]; second trial (Table 2)) [%] | pest or weed control at 200 g/ha (Lolium perenne [3]; second trial (Table 2)) [%] | pest or weed control at 1000 g/ha (Lolium perenne [3]; second trial (Table 2)) [%] | pest or weed control at 5000 g/ha (Lolium perenne [3]; second trial (Table 2)) [%] | pest or weed control at 200 g/ha ([4]; second trial (Table 2)) [%] | pest or weed control at 1000 g/ha ([4]; second trial (Table 2)) [%] | pest or weed control at 5000 g/ha ([4]; second trial (Table 2)) [%] | further results
1 | C#CCN1C(=O)C2(CC2)Oc2cc(F)c(N3C(=O)c4ccccc4C3=O)cc21 [Example 7] | 20 to 80 | 80 to 100 | 80 to 100 | 80 to 100 | 80 to 100 | 80 to 100 | < 20 | 20 to 80 | 20 to 80 | 80 to 100 | 80 to 100 | 80 to 100 | 
2 | C#CCN1C(=O)C2(CC2)Oc2cc(F)c(-n3c(=O)cc(C(F)(F)F)n(CC(=O)OC)c3=O)cc21 [Example 42] | < 20 | 20 to 80 | 20 to 80 | 20 to 80 | 80 to 100 | 80 to 100 | 20 to 80 | 20 to 80 | 80 to 100 | 80 to 100 | 80 to 100 | 80 to 100 | 
3 | C#CCN1C(=O)C2(CCC2)Oc2cc(F)c(-n3c(=O)cc(C(F)(F)F)[nH]c3=O)cc21 [Example 33, 3-(7-Fluoro-3-oxo-4-(prop-2-yn-1-yl)-3,4-dihydrospiro[benzo[b][1,4]oxazine-2,1′-cyclobutan]-6-yl)-6-(trifluoromethyl)pyrimidine-2,4(1H,3H)-dione] | < 20 | < 20 | < 20 | < 20 | 20 to 80 | 20 to 80 | < 20 | < 20 | < 20 | < 20 | < 20 | 20 to 80 | 
4 | C#CCN1C(=O)C2(CCC2)Oc2cc(F)c(N3C(=O)c4ccc(F)cc4C3=O)cc21 [Example 23] | < 20 | < 20 | 20 to 80 | < 20 | 80 to 100 | 80 to 100 | < 20 | < 20 | < 20 | 80 to 100 | 80 to 100 | 80 to 100 | 
5 | C#CCN1C(=O)C2(CC2)Oc2cc(F)c(N3C(=O)c4ccc(O)cc4C3=O)cc21 [Example 9] | < 20 | < 20 | 20 to 80 | < 20 | < 20 | 20 to 80 | < 20 | < 20 | 20 to 80 | < 20 | < 20 | 20 to 80 | 
6 | C#CCN1C(=O)C2(CC2)Oc2cc(F)c(N3C(=O)C4CC4C3=O)cc21 (stereo not shown) [Example 13] | < 20 | < 20 | 20 to 80 | 20 to 80 | 80 to 100 | 80 to 100 | < 20 | < 20 | < 20 | 80 to 100 | 80 to 100 | 80 to 100 | 
7 | O=C1c2ccc(F)cc2C(=O)N1c1cc2c(cc1F)OC1(CC1)C(=O)N2CC#CI [Example 30, 5-Fluoro-2-(7-fluoro-4-(3-iodoprop-2-yn-1-yl)-3-oxo-3,4-dihydrospiro[benzo[b][1,4]oxazine-2,1′-cyclopropan]-6-yl)isoindoline-1,3-dione] | 20 to 80 | 20 to 80 | 80 to 100 | 80 to 100 | 80 to 100 | 80 to 100 | < 20 | < 20 | < 20 | 80 to 100 | 80 to 100 | 80 to 100 | 
8 | O=C1c2ccc(F)cc2C(=O)N1c1cc2c(cc1F)OC1(CC1)C(=O)N2CC1CO1 (stereo not shown) [Example 36, 5-Fluoro-2-(7-fluoro-4-(oxiran-2-ylmethyl)-3-oxo-3,4-dihydrospiro[benzo[b][1,4]oxazine-2,1′-cyclopropan]-6-yl)isoindoline-1,3-dione] | < 20 | 20 to 80 | 20 to 80 | < 20 | 20 to 80 | 80 to 100 | < 20 | 20 to 80 | 20 to 80 | 80 to 100 | 80 to 100 | 80 to 100 | 
9 | C#CCN1C(=O)C2(CC2)Oc2cc(F)c(-n3nc(C(C)(C)C)oc3=O)cc21 [Example 3, 6-(5-(tert-Butyl)-2-oxo-1,3,4-oxadiazol-3(2H)-yl)-7-fluoro-4-(prop-2-yn-1-yl)spiro[benzo[b][1,4]oxazine-2,1′-cyclopropan]-3(4H)-one] |  |  |  |  |  |  |  |  |  |  |  |  | pest or weed control at 200 g/ha (Lolium perenne [1]; first trial (Table 1)): < 20%; pest or weed control at 1000 g/ha (Lolium perenne [1]; first trial (Table 1)): 20 to 80%; pest or weed control at 5000 g/ha (Lolium perenne [1]; first trial (Table 1)): 80 to 100%; pest or weed control at 200 g/ha ([2]; first trial (Table 1)): 20 to 80%; pest or weed control at 1000 g/ha ([2]; first trial (Table 1)): 80 to 100%; pest or weed control at 5000 g/ha ([2]; first trial (Table 1)): 80 to 100%; pest or weed control at 200 g/ha (Lolium perenne [3]; first trial (Table 1)): 20 to 80%; pest or weed control at 1000 g/ha (Lolium perenne [3]; first trial (Table 1)): 80 to 100%; pest or weed control at 5000 g/ha (Lolium perenne [3]; first trial (Table 1)): 80 to 100%; pest or weed control at 200 g/ha ([4]; first trial (Table 1)): 20 to 80%; pest or weed control at 1000 g/ha ([4]; first trial (Table 1)): 20 to 80%; pest or weed control at 5000 g/ha ([4]; first trial (Table 1)): 20 to 80%
10 | COC(=O)C(C)N1C(=O)C2(CC2)Oc2cc(F)c(N3C(=O)C=C(C(F)(F)F)C3=O)cc21 (stereo not shown) [Example 17] | < 20 | 20 to 80 | 20 to 80 | 20 to 80 | 20 to 80 | 80 to 100 | < 20 | < 20 | < 20 | < 20 | 20 to 80 | 20 to 80 | 
11 | C#CCN1C(=O)C2(CC2)Oc2cc(F)c(N3C(=O)c4cccc(F)c4C3=O)cc21 [Example 6] | < 20 | < 20 | 20 to 80 | 20 to 80 | 20 to 80 | 80 to 100 | 20 to 80 | 80 to 100 | 80 to 100 | 20 to 80 | 80 to 100 | 80 to 100 | 
12 | CCOC(=O)C(C)N1C(=O)C2(CC2)Oc2cc(F)c(N3C(=O)C=C(C(F)(F)F)C3=O)cc21 (stereo not shown) [Example 20] | < 20 | < 20 | < 20 | < 20 | 20 to 80 | 20 to 80 | < 20 | < 20 | < 20 | 20 to 80 | 80 to 100 | 80 to 100 | 
13 | C#CCN1C(=O)C2(CC2)Oc2cc(F)c(N3C(=O)c4ccc(F)cc4C3=O)cc21 [Example 5] |  | 20 to 80 | 80 to 100 |  | 80 to 100 | 80 to 100 | 20 to 80 | 20 to 80 | 80 to 100 | 80 to 100 | 80 to 100 | 80 to 100 | 
